Source: patent publication US20240083933A1, “DISACCHARIDES FOR TREATING BONE DISEASES” (UNIVERSITE DE PICARDIE JULES VERNE, priority 2020, published 2024)

Experiments:
[1] = tested on: bone defects in the skull of rats; experiment: Cranial bone defect model with implanted support; type: in vivo; set-up: key to BMD / BV/TV: =: no difference; N/A: not applicable; *p ≤ 0.05; **p ≤ 0.01; ***p ≤ 0.001
Method: The Sprague-Dawley rats are provided by Janvier Labs (Le Genest-Saint-Isle, France) and housed in the PLATAN animal facility of the UPJV. The rats were maintained under a 12-hour day-night cycle, at a temperature of 22±2° C. and 50% humidity.
In order to assess the osteoinductive capacity of the disaccharide via the acceleration of the phenomenon of bone reconstruction and to determine the concentration of the optimal DP2 molecule, and the nature of the most adapted support under the physiological conditions of the fracture consolidation operation (inflammatory reaction, cellular activity), 2 bone defects were made in the skull of rats.
Three different types of supports were tested and two different concentrations of DP2.
In order to reduce the number of used rats, two bone defects were made per rat; one defect was left blank and was used as an internal control for each rat. Thus, the support-only group is considered the control of the experiment. […] For the support-only condition, the latter is mixed with sterile saline solution.
After being assigned to one of the 12 groups shown above, the rat was anesthetized using IsoVet (isoflurane) in the mask (5% in the induction and 2 to 3% in maintenance dose). After 5 min, a nociception test was performed by pinching the paw or tail of the animal to check the effectiveness of the anesthesia. On the workstation, a shaving and a disinfection with vetedine were then carried out next to the incision.
A local anesthesia was also carried out with 7 mg/kg of 2% lidocaine (20 mg/mL) diluted to 5 mg/ml.
On the workstation, the incision of the skin with a 15 blade cold scalpel along the midline was performed, followed by the detachment of the subcutaneous tissues. Then, the incision along the midline and the lifting and lateral displacement of the periosteum were made. […] Saline solution was used during the milling steps. The implantation of the support, depending on the group, on the left side was made; the right side, without support, was used as a control to assess the effect of the lesion and the natural repair processes without the presence of support. The periosteum was put back in place and sutured with 7/0 skin suture. The skin was also put back in place and closed with 4/0 skin suture.
The rat was injected with buprenorphine at a dose of 0.05 mg/kg subcutaneously as an analgesic. After awakening, the rat was returned to its conventional housing conditions, by putting 1 rat per cage. The animals were supervised daily and animal welfare monitoring was carried out.

MC3T3-E1 cells = experiment: Calcium assay (pro-calcifying activity) on mouse pre-osteoblastic cells; type: cell-based; conditions: for increase in calcification relative to the mineralizing medium: MC3T3-E1, 25 days
Method: FIG. 1 represents the calcium dosage in the MC3T3-E1 culture medium (in […] of protein per well) after 9 days of exposure of these cells to 4 mM of Pi ([…]) (control+Pi) and 4 mM of Pi in the presence of 30 μM of each of the compounds referenced DP2SNA, DP2NA, DP2K and DP2S;
For all experiments, a mouse pre-osteoblastic cell line (MC3T3-E1, ATCC) and human primary osteoblastic cells (HOb, Promocell) were used. The mouse pre-osteoblastic cells were cultured in 75 cm^2 flasks, containing 15 mL of α-MEM medium (M4526, SIGMA) and 10% fetal calf serum (FCS), containing 1% Penicillin/Streptomycin antibiotics and 1% glutamine. Similarly, human HOb cells were cultured in 75 cm 2 flasks containing 15 mL of proliferation medium (Human Osteoblast Proliferation Medium, PromoCell). The cells are maintained in the oven at 37° C., with 5% CO2 and 90% humidity. The medium was changed every three days.
MC3T3-E1 cells were seeded in 6-well plates at 63,700 cells/well to be treated in order to extract RNA or for alkaline phosphatase enzymatic activity assay and in 48-well plates for the calcium assay at 5250 cells/well. The HOb cells were seeded at 182,000 cells/well in 6-well plates for the extraction of RNA or for the alkaline phosphatase enzymatic activity assay; at 15,000 cells/well in 48-well plates for the calcium assay; at 10,000 cells/well in 48-well plates for the MTT test or the WST-1 test and at 100,000 cells/well in 6-well plates for the protein extraction or for the fluorescence.
In order to induce the mineralization, the MC3T3-E1 cells were treated with α-MEM medium containing 5% FCS to which 10 mM of β-glycerophosphate and 50 μg/mL of ascorbic acid are added. The HOb cells were treated with the “Osteoblast mineralization medium” (Promocell). […] After filtration, the cells were treated with the respective media (500 μL per well of the 48-well plate and 2 mL per well of the 6-well plate).
The release of calcium in the culture medium of mouse pre-osteoblastic cells (MC3T3-E1) has been studied.
An increase in calcification was observed, relative to the mineralizing medium (FIG. 2), in the presence of DP2R0 at 15 μM (40±2%), at 30 μM (28±18%) and at 50 μM (40±28%), and DP2NA at 15 μM (15±14%), at 30 μM (33±12%) and at 50 μM (10±19%).

[2] = Bio-oss support + DP2R2 3 mM vs Bio-oss only, D 14
[3] = Bio-oss support + DP2R2 3 mM vs Bio-oss only, D 29
[4] = Bio-oss support + DP2R2 3 mM vs Bio-oss only, D 63
[5] = Bio-oss support + DP2R2 3 mM vs Bio-oss only, D 91
[6] = Bio-oss support + DP2R2 9 mM vs Bio-oss only, D 14
[7] = Bio-oss support + DP2R2 9 mM vs Bio-oss only, D 29
[8] = Bio-oss support + DP2R2 9 mM vs Bio-oss only, D 63
[9] = Bio-oss support + DP2R2 9 mM vs Bio-oss only, D 91
[10] = Collagen support + DP2R2 3 mM vs Collagen only, D 14
[11] = Collagen support + DP2R2 3 mM vs Collagen only, D 29
[12] = Collagen support + DP2R2 3 mM vs Collagen only, D 63
[13] = Collagen support + DP2R2 3 mM vs Collagen only, D 91
[14] = Collagen support + DP2R2 9 mM vs Collagen only, D 14
[15] = Collagen support + DP2R2 9 mM vs Collagen only, D 29
[16] = Collagen support + DP2R2 9 mM vs Collagen only, D 63
[17] = Collagen support + DP2R2 9 mM vs Collagen only, D 91
[18] = MBCP support + DP2R2 3 mM vs MBCP only, D 14
[19] = MBCP support + DP2R2 3 mM vs MBCP only, D 29
[20] = MBCP support + DP2R2 3 mM vs MBCP only, D 63
[21] = MBCP support + DP2R2 3 mM vs MBCP only, D 91
[22] = MBCP support + DP2R2 9 mM vs MBCP only, D 14
[23] = MBCP support + DP2R2 9 mM vs MBCP only, D 29
[24] = MBCP support + DP2R2 9 mM vs MBCP only, D 63
[25] = MBCP support + DP2R2 9 mM vs MBCP only, D 91

CCCO[C@H]1OC(CO)[C@@H](O[C@@H]2OC(CO)[C@@H](O)C(O)C2NC(C)=O)C(O)C1OC(C)=O (stereo partly drawn) [DP2, n-propyl, 2-O-acetyl-α-D-Glucopyranoside, 4-O-(2-acetamido-2-deoxy-β-D-glucopyranosyl)]
BMD [1, 2]: =
BV/TV [1, 2]: =
BMD [1, 3]: =
BV/TV [1, 3]: =
BMD [1, 4]: =
BV/TV [1, 4]: =
BMD [1, 5]: =
BV/TV [1, 5]: =
BMD [1, 6]: =
BV/TV [1, 6]: =
BMD [1, 7]: =
BV/TV [1, 7]: =
BMD [1, 8]: =
BV/TV [1, 8]: =
BMD [1, 9]: =
BV/TV [1, 9]: =
BMD [1, 10]: ↑*
BV/TV [1, 10]: =
BMD [1, 11]: =
BV/TV [1, 11]: =
BMD [1, 12]: =
BV/TV [1, 12]: =
BMD [1, 13]: =
BV/TV [1, 13]: =
BMD [1, 14]: =
BV/TV [1, 14]: =
BMD [1, 15]: =
BV/TV [1, 15]: =
BMD [1, 16]: =
BV/TV [1, 16]: =
BMD [1, 17]: =
BV/TV [1, 17]: =
BMD [1, 18]: =
BV/TV [1, 18]: =
BMD [1, 19]: ↑*
BV/TV [1, 19]: =
BMD [1, 20]: ↑*
BV/TV [1, 20]: =
BMD [1, 21]: ↑***
BV/TV [1, 21]: =
BMD [1, 22]: =
BV/TV [1, 22]: =
BMD [1, 23]: ↑*
BV/TV [1, 23]: =
BMD [1, 24]: ↑***
BV/TV [1, 24]: =
BMD [1, 25]: ↑*
BV/TV [1, 25]: =
bone mineralization ([1]; collagen+DP2 [3 mM], D14): increases the bone mineralization
in-vivo toxic effect (survival, infection, hematoma, necrosis at defect sites) ([1]; rats, 3 months after implantation): does not have any in-vivo toxic effect
bone mineralization relative MBCP alone ([1]; the 2 MBCP+DP2 groups (3 mM, 9 mM), from D29 post-surgery): increase the bone mineralization
production of calcium by the MC3T3-E1 cells (calcium dosage in culture medium) (MC3T3-E1 cells; 9 days, 4 mM Pi, 30 μM compound, vs control+Pi (FIG. 1)): increase the production of calcium
increase in calcification relative to the mineralizing medium (MC3T3-E1 cells; 15 μM): 40±2%
increase in calcification relative to the mineralizing medium (MC3T3-E1 cells; 30 μM): 28±18%
increase in calcification relative to the mineralizing medium (MC3T3-E1 cells; 50 μM): 40±28%
